Assay results: patent US11306102B2, “1,3-di-substituted ketene compound and application thereof” (BEBETTER MED INC., priority 2017, dated 2022)

What was measured:
PPARα = target: T1, PPARα (Homo sapiens, UniProt Q07869); assay: Hela cell/luciferase reporter gene method, PPARα agonist activity; format: cell-based; settings: Hela cells, pPPRE3-TK-Luciferase reporter, 24 hrs incubation; read-out: agonistic activity on PPAα (EC50)
T1 construct: expressed in transfected cells; host or cells: Hela cells
T1 sequence (Q07869 1-468): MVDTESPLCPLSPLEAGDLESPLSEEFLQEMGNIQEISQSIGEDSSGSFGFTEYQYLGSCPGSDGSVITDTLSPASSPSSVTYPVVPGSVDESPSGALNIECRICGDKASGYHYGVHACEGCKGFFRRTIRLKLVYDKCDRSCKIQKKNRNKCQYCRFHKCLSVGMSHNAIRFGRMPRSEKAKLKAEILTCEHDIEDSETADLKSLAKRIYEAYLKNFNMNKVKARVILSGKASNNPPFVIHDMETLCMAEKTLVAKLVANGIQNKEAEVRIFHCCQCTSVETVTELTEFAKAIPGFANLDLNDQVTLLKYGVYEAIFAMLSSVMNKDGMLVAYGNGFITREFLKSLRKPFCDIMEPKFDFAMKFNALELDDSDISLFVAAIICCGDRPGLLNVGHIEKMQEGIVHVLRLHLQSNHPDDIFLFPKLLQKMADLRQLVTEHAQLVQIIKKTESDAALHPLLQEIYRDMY
Procedure: (§1) This example measures the biological activity of a PPAR agonist using the Hela cell/luciferase reporter gene method.
(§2) The target plasmids PCMV PPARα (Ampicillin+), PCMV PPARγ (Ampicillin+), PCMV PPARδ (Ampicillin+), and pPPRE3-TK-Luciferase (Ampicillin+) were introduced into DH5a competent cells by heat shock treatment, respectively. After being incubated for 1 hour at 37° C. with shaking (180 rpm), the cells were inoculated on LB agar solid medium containing antibiotic Ampicillin, and invertedly cultured at 37° C. for 12-16 hours. Then the monoclonal colony cultured on the medium was taken and inoculated into LB liquid medium for expanded culture. The desired plasmid was extracted from the resulting bacterial solution with a Plasmid Midi Kit (Qiagen; #12143). The plasmid obtained by centrifugation was suspended in TE buffer, and the plasmid concentration was measured and the mixture was stored at −20° C. Hela cells in the exponential phase were seeded in 6-well plates (8-10^5 cells/well), and after 6-8 hours of culture, the cells were transfected using Lipofectamine® 3000 Transfection Reagent (Invitrogen; #L3000015). A plasmid containing a PPAR binding site (peroxisome proliferator response element, PPRE) and a firefly luciferase gene (pPPRE3-TK-Luciferase) and PPAR expression vector were co-transfected into a Hela cell with a total amount of plasmid DNA of 2.5 ug (the mass ratio of each PPAR expression vector is pPPRE:PPARα=6:1, pPPRE:PPARδ=8:1, and pPPRE:PPARγ=2:1) to construct a drug screening cell model for PPAR agonists. PPAR was binded to the ligand and then binded to the peroxisome proliferator response element (PPRE), thereby initiating downstream firefly luciferase expression and its expression intensity was directly proportional to the degree of PPAR activation. The cells after 24 hours transfection were prepared into a cell suspension with a cell concentration of […] by a complete culture solution, and seeded into a 96-well plate with 100 ul per well. After overnight culture, the medium was changed to a medium containing 1% FBS. 10 mM candidate compound stock (1000×) were 4-fold diluted in DMSO for 8 points, then supplemented with medium containing 1% FBS to a final concentration of 50 uM (5×) by addition of 25 μl of 5× compound diluent to each well in different concentration gradients and incubated under 37° C., 5% CO2 incubator for 24 hrs. The 96-well plate was taken out and 30 μl of Bright-Glo™ Luciferase Assay System (Promega #E2620) was added to each well. The Luciferase luminescence intensity was measured by a SynergyH1 full-function microplate detector. The obtained data was used to calculate EC50 using GraphPad Prism 5.0 software to determine the biological activity of the compound.
(§3) The agonistic activity of the compounds synthesized in Examples 1-41 on PPAR is represented by EC50 (see Table 1). EC50 refers to the drug concentration at which the compound has a 50% increase in the agonistic activity of the measured PPAR. The compound numbers in Table 1 correspond to the compound numbers in Examples 1-41.

PPARδ = target: T2, PPARδ (Homo sapiens, UniProt Q03181); assay: Hela cell/luciferase reporter gene method, PPARδ agonist activity; format: cell-based; settings: Hela cells, pPPRE3-TK-Luciferase reporter, 24 hrs incubation; read-out: agonistic activity on PPARδ (EC50)
T2 construct: expressed in transfected cells; host or cells: Hela cells
T2 sequence (Q03181 1-441): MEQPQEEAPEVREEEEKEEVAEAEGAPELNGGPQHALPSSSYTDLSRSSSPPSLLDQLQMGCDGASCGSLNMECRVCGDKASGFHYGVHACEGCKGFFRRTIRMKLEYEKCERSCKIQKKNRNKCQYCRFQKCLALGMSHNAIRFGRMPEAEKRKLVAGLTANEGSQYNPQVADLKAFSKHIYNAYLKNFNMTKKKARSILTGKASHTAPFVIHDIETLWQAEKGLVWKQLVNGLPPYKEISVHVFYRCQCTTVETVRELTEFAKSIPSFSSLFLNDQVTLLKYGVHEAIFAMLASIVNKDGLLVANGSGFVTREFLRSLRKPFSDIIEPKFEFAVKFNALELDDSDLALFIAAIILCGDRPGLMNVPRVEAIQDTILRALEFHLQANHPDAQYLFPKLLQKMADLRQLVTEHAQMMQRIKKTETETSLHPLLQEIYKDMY
Procedure: as §1
as §2, with “The desired plasmid was extracted from the resulting bacterial solution with a Plasmid Midi Kit (Qiagen; #12143).” left out

PPARγ = target: T3, PPARγ (Homo sapiens, UniProt P37231); assay: Hela cell/luciferase reporter gene method, PPARγ agonist activity; format: cell-based; settings: Hela cells, pPPRE3-TK-Luciferase reporter, 24 hrs incubation; read-out: agonistic activity on PPARγ (EC50)
T3 construct: expressed in transfected cells; host or cells: Hela cells
T3 sequence (P37231 1-505): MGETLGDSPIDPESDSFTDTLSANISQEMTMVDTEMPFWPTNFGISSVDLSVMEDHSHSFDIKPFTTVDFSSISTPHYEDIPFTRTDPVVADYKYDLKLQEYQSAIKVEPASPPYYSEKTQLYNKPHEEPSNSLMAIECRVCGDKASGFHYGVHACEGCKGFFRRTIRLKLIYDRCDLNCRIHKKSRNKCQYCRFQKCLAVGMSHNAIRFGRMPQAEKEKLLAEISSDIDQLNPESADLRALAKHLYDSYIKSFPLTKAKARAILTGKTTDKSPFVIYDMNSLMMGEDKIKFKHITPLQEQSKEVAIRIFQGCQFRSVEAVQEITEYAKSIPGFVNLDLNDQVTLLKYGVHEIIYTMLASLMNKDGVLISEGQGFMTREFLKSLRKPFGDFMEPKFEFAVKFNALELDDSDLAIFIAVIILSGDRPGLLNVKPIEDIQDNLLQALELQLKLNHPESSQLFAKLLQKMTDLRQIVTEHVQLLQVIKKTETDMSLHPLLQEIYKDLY
Procedure: as §1, §2, §3

[1] = Pharmacokinetic (PK) experiments after intragastric administration in rats; format: in vivo, SD rats; settings: male, SD, rat, plasma, po, intragastric administration 20 mg/kg
Procedure: Male SD rats, weighing 250-300 grams, were fasted overnight before testing. The test compound was dissolved in 30% sulfobutyl-R-cyclodextrin (SBE-β-CD) and administered intragastrically at a dose of 20 mg/kg. Blood was collected 15 minutes, 30 minutes, and 1, 2, 3, 4, […] and 24 hours after the administration. About 0.3 ml of blood was collected at each time point, placed in a centrifuge tube containing K2-EDTA (dipotassium ethylenediamine tetraacetate) and centrifuged (2,000 g, 10 minutes, 4° C.) to take the plasma, which was stored in an ultra-low temperature refrigerator at −80° C. A 50 μL plasma sample was mixed with 5 μl of internal standard (IS) and extracted with ethyl acetate. The residue was redissolved in acetonitrile after drying under vacuum. The sample was filtered and injected into an LC-MS/MS for analysis.

Row | EC50 (PPARα) | EC50 (PPARγ) | SMILES | other results
1 | 83.9 nM | 1100 nM | CSc1ccc2cc(C(=O)/C=C/c3ccc(OC(C)(C)C(=O)O)cc3)oc2c1 [Compound 56, (E)-2-methyl-2-(4-(3-(6-(methylthio)benzofuran-2-yl)-3-oxoprop-1-en-1-yl)phenoxy)propanoic acid] | –
2 | 420 nM | 172 nM | COc1ccc(C(=O)/C=C/c2cc(C)c(OC(C)(C)C(=O)O)c(C)c2)c2occc12 [Compound 1, (E)-2-(4-(3-(4-methoxybenzofuran-7-yl)-3-oxoprop-1-en-1-yl)-2,6-dimethylphenoxy)-2-methylpropanoic acid] | –
3 | 453 nM | 577 nM | Cc1cc(/C=C/C(=O)c2cccc3ccoc23)cc(C)c1OC(C)(C)C(=O)O [Compound 3, (E)-2-(4-(3-(benzofuran-7-yl)-3-oxoprop-1-en-1-yl)-2,6-dimethylphenoxy)-2-methylpropanoic acid] | –
4 | 99.8 nM | 279 nM | CSc1ccc(C(=O)/C=C/c2ccc(OC(C)(C)C(=O)O)cc2)c2occc12 [Compound 12, (E)-2-methyl-2-(4-(3-(4-(methylthio)benzofuran-7-yl)-3-oxoprop-1-en-1-yl)phenoxy)propanoic acid] | –

Continued, compound first:

Row | SMILES | EC50 (PPARα) | EC50 (PPARγ) | other results
5 | Cc1cc(/C=C/C(=O)c2ccc3sccc3c2)cc(C)c1OC(C)(C)C(=O)O [Compound 38, (E)-2-(4-(3-(benzo[b]thiophen-5-yl)-3-oxoprop-1-en-1-yl)-2,6-dimethylphenoxy)-2-methylpropanoic acid] | > 10000 nM | – | EC50 (PPARδ): 838 nM
6 | Cc1ccc2cc(C(=O)/C=C/c3cc(C)c(OC(C)(C)C(=O)O)c(C)c3)oc2c1 [Compound 50, (E)-2-(2,6-dimethyl-4-(3-(6-methylbenzofuran-2-yl)-3-oxoprop-1-en-1-yl)phenoxy)-2-methylpropanoic acid] | 123 nM | 167 nM | –
7 | CSc1ccc(C(=O)/C=C/c2cc(C)c(OC(C)(C)C(=O)O)c(C)c2)cc1 [Elafibranor, reference compound] | 29.2 nM | 86.6 nM | AUC(0-inf) [1]: 1350 ng·h/mL; AUC(0-t) [1]: 1350 ng·h/mL; Cmax [1]: 1140 ng/mL; Tmax [1]: 19.8 min; half-life ([1]; read-out: Terminal T1/2 (converted)): 49.2 min
8 | CSc1ccc(C(=O)/C=C/c2cc(C)c(OC(C)(C)C(=O)O)c(C)c2)c2oc(C)cc12 [Compound 14, (E)-2-(2,6-dimethyl-4-(3-(2-methyl-4-(methylthio)benzofuran-7-yl)-3-oxoprop-1-en-1-yl)phenoxy)-2-methylpropanoic acid] | 156 nM | 122 nM | –
